{
  "source": "patent US20070213339A1",
  "about": "(Bayer Pharmaceuticals Corporation, priority 2004, published 2007)",
  "data": [
    {"test_system": "Colo205 human colon carcinoma cell line", "test": "In vitro tumor cell proliferation assay (MTS, CellTiter 96 Aqueous One Solution)", "type": "cell-based", "conditions": "COLO 205, Colo205 cells, 72 hours compound exposure, MTS absorbance at 490 nm, read-out: IC50 (concentration of test compound required to inhibit proliferation of 50% of the cells)", "method_in_brief": "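Proliferation measured as MTS tetrazolium reduction (490 nm) after 72 h compound exposure at 37 °C. Cells plated at 2000 per well in serum-supplemented RPMI-1640; duplicate 5-point dilutions topping out at 10-20 μM. Percent inhibition versus untreated and cell-free wells, IC50 derived by linear regression.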", "units": {"IC50": "nM"}, "values": [
      {"compound": "O=C(O)c1cn(-c2cccc(CN3CCCCC3)c2)c2c(Cl)c(N3CCN(c4ccccc4F)CC3)c(F)cc2c1=O", "note": "[Example 63, 8-chloro-6-fluoro-7-[4-(2-fluorophenyl)-piperazin-1-yl]-4-oxo-1-[3-(piperidin-1-ylmethyl)phenyl]-1,4-dihydroquinoline-3-carboxylic acid]", "IC50": "2000 to 20000"},
      {"compound": "O=C(O)c1cn(-c2cccc(CN3CCCCC3)c2)c2c(Cl)c(N3CCN(c4ccc(F)cc4F)CC3)c(F)cc2c1=O", "note": "[Example 64, 8-chloro-7-[4-(2,4-difluorophenyl)piperazin-1-yl]-6-fluoro-4-oxo-1-[3-(piperidin-1-ylmethyl)phenyl]-1,4-dihydroquinoline-3-carboxylic acid]", "IC50": "2000 to 20000"},
      {"compound": "O=C(O)c1cn(-c2cccc(CN3CCCCC3)c2)c2c(Cl)c(N3CCN(c4ccccn4)CC3)c(F)cc2c1=O", "note": "[Example 65, 8-chloro-6-fluoro-4-oxo-1-[3-(piperidin-1-yl-methyl)phenyl]-7-(4-pyridin-2-ylpiperazin-1-yl)-1,4-dihydroquinoline-3-carboxylic acid]", "IC50": "2000 to 20000"},
      {"compound": "O=C(O)c1cn(-c2cccc(CN3CCCCC3)c2)c2c(Cl)c(N3CCN(c4ncccn4)CC3)c(F)cc2c1=O", "note": "[Example 66, 8-chloro-6-fluoro-4-oxo-1-[3-(piperidin-1-yl-methyl)phenyl]-7-(4-pyrimidin-2-ylpiperazin-1-yl)-1,4-dihydroquinoline-3-carboxylic acid]", "IC50": "2000 to 20000"},
      {"compound": "O=C(O)c1cn(-c2cccc(CN3CCCCC3)c2)c2c(Cl)c(N3CCN(c4ccc(F)cc4)CC3)c(F)cc2c1=O", "note": "[Example 67, 8-chloro-6-fluoro-7-[4-(4-fluorophenyl)-piperazin-1-yl]-4-oxo-1-[3-(piperidin-1-ylmethyl)phenyl]-1,4-dihydroquinoline-3-carboxylic acid]", "IC50": "2000 to 20000"},
      {"compound": "O=C(O)c1cn(-c2cccc(CN3CCCCC3)c2)c2c(Cl)c(N3CCN(c4cccc(Cl)c4)CC3)c(F)cc2c1=O", "note": "[Example 68, 8-chloro-7-[4-(3-chlorophenyl)piperazin-1-yl]-6-fluoro-4-oxo-1-[3-(piperidin-1-ylmethyl)phenyl]-1,4-dihydroquinoline-3-carboxylic acid]", "IC50": "2000 to 20000"},
      {"compound": "CN(C)CCc1ccc(-n2cc(C(=O)O)c(=O)c3cc(F)c(N4CCN(c5ccccn5)CC4)c(Cl)c32)cc1", "note": "[Example 69, 8-chloro-1-{4-[2-(dimethylamino)ethyl]phenyl}-6-fluoro-4-oxo-7-(4-pyridin-2-ylpiperazin-1-yl)-1,4-dihydroquinoline-3-carboxylic acid]", "IC50": "< 500"},
      {"compound": "CN(C)CCc1ccc(-n2cc(C(=O)O)c(=O)c3cc(F)c(N4CCN(c5ccc(Cl)cc5)CC4)c(Cl)c32)cc1", "note": "[Example 70, 8-chloro-7-[4-(4-chlorophenyl)piperazin-1-yl]-1-{4-[2-(dimethylamino)ethyl]phenyl}-6-fluoro-4-oxo-1,4-dihydroquinoline-3-carboxylic acid]", "IC50": "500 to 2000"},
      {"compound": "CN(C)CCc1ccc(-n2cc(C(=O)O)c(=O)c3cc(F)c(N4CCN(c5ncccn5)CC4)c(Cl)c32)cc1", "note": "[Example 71, 8-chloro-1-{4-[2-(dimethylamino)ethyl]phenyl}-6-fluoro-4-oxo-7-(4-pyrimidin-2-ylpiperazin-1-yl)-1,4-dihydroquinoline-3-carboxylic acid]", "IC50": "2000 to 20000"},
      {"compound": "COc1c(N2CCN(c3ccccn3)CC2)c(F)cc2c(=O)c(C(=O)O)cn(-c3ccc(CN4CCCC4)cc3)c12", "note": "[Example 72, 6-fluoro-8-methoxy-4-oxo-7-(4-pyridin-2-ylpiperazin-1-yl)-1-[4-(pyrrolidin-1-ylmethyl)phenyl]-1,4-dihydroquinoline-3-carboxylic acid]", "IC50": "< 500"},
      {"compound": "COc1c(N2CCN(c3ncccn3)CC2)c(F)cc2c(=O)c(C(=O)O)cn(-c3ccc(CN4CCCC4)cc3)c12", "note": "[Example 73, 6-fluoro-8-methoxy-4-oxo-7-(4-pyrimidin-2-ylpiperazin-1-yl)-1-[4-(pyrrolidin-1-ylmethyl)phenyl]-1,4-dihydroquinoline-3-carboxylic acid]", "IC50": "< 500"},
      {"compound": "COc1c(N2CCN(c3ccc(F)cc3)CC2)c(F)cc2c(=O)c(C(=O)O)cn(-c3ccc(CN4CCCC4)cc3)c12", "note": "[Example 74, 6-fluoro-7-[4-(4-fluorophenyl)piperazin-1-yl]-8-methoxy-4-oxo-1-[4-(pyrrolidin-1-ylmethyl)phenyl]-1,4-dihydroquinoline-3-carboxylic acid]", "IC50": "< 500"},
      {"compound": "COc1c(N2CCN(c3ccccc3F)CC2)c(F)cc2c(=O)c(C(=O)O)cn(-c3ccc(CN4CCCC4)cc3)c12", "note": "[Example 75, 6-fluoro-7-[4-(2-fluorophenyl)piperazin-1-yl]-8-methoxy-4-oxo-1-[4-(pyrrolidin-1-ylmethyl)phenyl]-1,4-dihydroquinoline-3-carboxylic acid]", "IC50": "500 to 2000"},
      {"compound": "COc1c(N2CCN(c3ccc(F)cc3F)CC2)c(F)cc2c(=O)c(C(=O)O)cn(-c3ccc(CN4CCCC4)cc3)c12", "note": "[Example 76, 7-[4-(2,4-difluorophenyl)piperazin-1-yl]-6-fluoro-8-methoxy-4-oxo-1-[4-(pyrrolidin-1-ylmethyl)phenyl]-1,4-dihydroquinoline-3-carboxylic acid]", "IC50": "500 to 2000"},
      {"compound": "COc1c(N2CCN(c3ccc(C#N)cc3)CC2)c(F)cc2c(=O)c(C(=O)O)cn(-c3ccc(CN4CCCC4)cc3)c12", "note": "[Example 77, 7-[4-(4-cyanophenyl)piperazin-1-yl]-6-fluoro-8-methoxy-4-oxo-1-[4-(pyrrolidin-1-ylmethyl)phenyl]-1,4-dihydroquinoline-3-carboxylic acid]", "IC50": "< 500"},
      {"compound": "COc1c(N2CCN(c3ccc(C(C)=O)cc3)CC2)c(F)cc2c(=O)c(C(=O)O)cn(-c3ccc(CN4CCCC4)cc3)c12", "note": "[Example 78, 7-[4-(4-acetylphenyl)piperazin-1-yl]-6-fluoro-8-methoxy-4-oxo-1-[4-(pyrrolidin-1-ylmethyl)phenyl]-1,4-dihydroquinoline-3-carboxylic acid]", "IC50": "500 to 2000"},
      {"compound": "COc1c(N2CCN(c3ncccc3C#N)CC2)c(F)cc2c(=O)c(C(=O)O)cn(-c3ccc(CN4CCCC4)cc3)c12", "note": "[Example 79, 7-[4-(3-cyanopyridin-2-yl)piperazin-1-yl]-6-fluoro-8-methoxy-4-oxo-1-[4-(pyrrolidin-1-ylmethyl)phenyl]-1,4-dihydroquinoline-3-carboxylic acid]", "IC50": "< 500"},
      {"compound": "COc1c(N2CCN(c3ccc(Cl)cc3)CC2)c(F)cc2c(=O)c(C(=O)O)cn(-c3ccc(CN4CCCC4)cc3)c12", "note": "[Example 80, 7-[4-(4-chlorophenyl)piperazin-1-yl]-6-fluoro-8-methoxy-4-oxo-1-[4-(pyrrolidin-1-ylmethyl)phenyl]-1,4-dihydroquinoline-3-carboxylic acid]", "IC50": "500 to 2000"},
      {"compound": "COc1c(N2CCN(c3ccccc3C#N)CC2)c(F)cc2c(=O)c(C(=O)O)cn(-c3ccc(CN4CCCC4)cc3)c12", "note": "[Example 81, 7-[4-(2-cyanophenyl)piperazin-1-yl]-6-fluoro-8-methoxy-4-oxo-1-[4-(pyrrolidin-1-ylmethyl)phenyl]-1,4-dihydroquinoline-3-carboxylic acid]", "IC50": "500 to 2000"},
      {"compound": "COc1c(N2CCN(c3ccc(C(F)(F)F)cc3)CC2)c(F)cc2c(=O)c(C(=O)O)cn(-c3ccc(CN4CCCC4)cc3)c12", "note": "[Example 82]", "IC50": "2000 to 20000"},
      {"compound": "COc1ccccc1N1CCN(c2c(F)cc3c(=O)c(C(=O)O)cn(-c4ccc(CN5CCCC5)cc4)c3c2OC)CC1", "note": "[Example 83, 6-fluoro-8-methoxy-7-[4-(2-methoxyphenyl)-piperazin-1-yl]-4-oxo-1-[4-(pyrrolidin-1-ylmethyl)phenyl]-1,4-dihydroquinoline-3-carboxylic acid]", "IC50": "500 to 2000"},
      {"compound": "COc1c(N2CCN(c3ccccc3[N+](=O)[O-])CC2)c(F)cc2c(=O)c(C(=O)O)cn(-c3ccc(CN4CCCC4)cc3)c12", "note": "[Example 84, 6-fluoro-8-methoxy-7-[4-(2-nitrophenyl)-piperazin-1-yl]-4-oxo-1-[4-(pyrrolidin-1-ylmethyl)phenyl]-1,4-dihydroquinoline-3-carboxylic acid]", "IC50": "500 to 2000"},
      {"compound": "COc1c(N2CCN(c3cccc(F)c3)CC2)c(F)cc2c(=O)c(C(=O)O)cn(-c3ccc(CN4CCCC4)cc3)c12", "note": "[Example 85, 6-fluoro-7-[4-(3-fluorophenyl)piperazin-1-yl]-8-methoxy-4-oxo-1-[4-(pyrrolidin-1-ylmethyl)phenyl]-1,4-dihydroquinoline-3-carboxylic acid]", "IC50": "< 500"},
      {"compound": "COc1c(N2CCN(c3ccc(Cl)c(Cl)c3)CC2)c(F)cc2c(=O)c(C(=O)O)cn(-c3ccc(CN4CCCC4)cc3)c12", "note": "[Example 86, 7-[4-(3,4-dichlorophenyl)piperazin-1-yl]-6-fluoro-8-methoxy-4-oxo-1-[4-(pyrrolidin-1-ylmethyl)phenyl]-1,4-dihydroquinoline-3-carboxylic acid]", "IC50": "500 to 2000"},
      {"compound": "COc1c(N2CCN(c3ccc([N+](=O)[O-])cc3F)CC2)c(F)cc2c(=O)c(C(=O)O)cn(-c3ccc(CN4CCCC4)cc3)c12", "note": "[Example 87, 6-fluoro-7-[4-(2-fluoro-4-nitrophenyl)piperazin-1-yl]-8-methoxy-4-oxo-1-[4-(pyrrolidin-1-ylmethyl)phenyl]-1,4-dihydroquinoline-3-carboxylic acid]", "IC50": "500 to 2000"},
      {"compound": "COc1c(N2CCN(c3ccccc3SC)CC2)c(F)cc2c(=O)c(C(=O)O)cn(-c3ccc(CN4CCCC4)cc3)c12", "note": "[Example 88, 6-fluoro-8-methoxy-7-{4-[2-(methylthio)phenyl]-piperazin-1-yl}-4-oxo-1-[4-(pyrrolidin-1-ylmethyl)phenyl]-1,4-dihydroquinoline-3-carboxylic acid]", "IC50": "< 500"},
      {"compound": "COc1c(N2CCN(c3ccccc3C#N)CC2)c(F)cc2c(=O)c(C(=O)O)cn(-c3ccc(CN4CCCCC4)cc3)c12", "note": "[Example 89, 7-[4-(2-cyanophenyl)piperazin-1-yl]-6-fluoro-8-methoxy-4-oxo-1-[4-(piperidin-1-ylmethyl)phenyl]-1,4-dihydroquinoline-3-carboxylic acid]", "IC50": "< 500"}
    ]}
  ]
}
